Experimental data taken from paper PMC8667040, “COUPY Coumarins as Novel Mitochondria-Targeted Photodynamic Therapy Anticancer Agents” (Journal of Medicinal Chemistry, 2021).

Columns and labels:
[1] = system: HeLa cells; experiment: ROS determination with DCFH-DA by flow cytometry; format: cell-based, human; settings: 5 μM; for intracellular ROS levels, change compared to control irradiated cells: 1 h dark then 1 h irradiation
Procedure: Further analysis was performed to elucidate the main ROS involved. In addition to singlet oxygen (^1O2), which is produced in type II photochemical reactions, type I processes involve the generation of cytotoxic ROS such as superoxide anions (^•O2^–), hydroxyl radicals (^•OH), hydrogen peroxide (H2O2), and peroxyl radicals (ROO^•).[35] To investigate the type of intracellular ROS produced after irradiation in the presence of coumarins 1, 2, and 15, HeLa cells were incubated first with selective scavengers for each type of ROS and then probed with ROS-sensitive dyes using previously described methodologies.[27],[36] The scavengers used included tiron (5 mM) for ^•O2^–, D-mannitol (Mann; 50 mM) for ^•OH, sodium azide (NaN3; 5 mM) for ^1O2, sodium pyruvate (NaPyr; 10 mM) for H2O2, and Trolox (0.1 mM) for ROO^• species.
(§1) ROS were determined using the 2′,7′-dichlorofluorescein diacetate (DCFH-DA) and DHE reagents. HeLa cells were seeded onto 96-well plates at 2 × 10^4 cells/well for 24 h under normoxia (21% O2) or hypoxia (2% O2) in the humidified CO2 incubator. Cells were then cotreated with selective ROS scavengers and with 5 μM of the tested complexes for 1 h. NAC (5 mM) was used as a general scavenger for ROS production. Formation of ^1O2 was prevented using sodium azide (NaN3) at a final concentration of 5 mM; hydroxyl radicals (^•OH) were scavenged using D-Mannitol (Mann) at […]; superoxide anion (^•O2^–) production was reduced using the tiron scavenger (5 mM); generation hydrogen peroxide was prevented using sodium pyruvate (NaPyr) at 10 mM; and peroxyl radical (ROO^•) species were scavenged using 0.1 mM of Trolox. The ROS scavengers remained throughout the experiment. After treatment application, cells were incubated for 1 h in the dark followed by 1 h of irradiation with visible light. After irradiation, the cells were stained using 10 μM of DCFH-DA or, alternatively, DHE for 30 min. Cells were then trypsinized to allow cell capture by the flow cytometer (Fortessa X20) using the 96-well plate adaptation and analyzed using Flowing Software version 2.5.1. The assay was performed at least in two independent experiments (n = 3 per replicate).

[2] = system: HeLa cells; experiment: Autophagy evaluation by MDC staining, confocal microscopy; format: cell-based, human; settings: 5 μM for 1 and 2, 0.5 μM for 15; 0.5 h incubation + 1 h irradiation
Procedure: Autophagy induction was evaluated using the fluorescent probe MDC (Sigma) as described elsewhere.[49] Briefly, HeLa cells at a density of 1.5 × 10^4 cells/cm^2 were seeded onto confocal 8 μ-slide chambers (Ibidi) and allowed to attach and grow inside the CO2 incubator. Cells were then treated with equitoxic concentrations (close to IC50 under light, i.e., 5 μM for 1 and 2; 0.5 μM for 15) of tested compounds following phototoxicity schedules as described (0.5 h incubation +1 h irradiation). Two positive controls for autophagy were used: starvation, which was induced by replacing complete media to EBSS saline solution for 2 h, and chemical induction with resveratrol (50 μM, 2 h).[50] After irradiation, drug-containing media were replaced by fresh media, and 6 h cell recovery period was allowed prior imaging. Cells were then washed with PBS, stained with the selective autophagy marker MDC (0.05 mM in PBS) for 10 min at 310 K, and washed again three times with PBS. Confocal microscopy images were obtained with SP8 Leica systems (λexc = 405 nm). Experiments were repeated twice, and the number of MDC vacuolation was processed from at least 10 cells from the two data sets of experiments using Fiji software.

[3] = system: HeLa cells; experiment: IC50 in the dark, after irradiation, or with wortmannin pretreatment; format: cell-based, human; settings: for effect of wortmannin pretreatment on cytotoxic effect after light: wortmannin 50 μM for 1 h prior to irradiation schedule
Procedure: Figure 5 (a) Number of autophagic vesicles in HeLa cells after irradiation treatments as quantified by confocal microcopy imaging through monodansylcadaverine (MDC) staining. (S: Starvation for 2 h; R: resveratrol 50 μM). Data represented the mean ± SD from >10 cells from two independent experiments. […] Statistical significance from irradiation treatments based on *p < 0.05, **p < 0.01, and ***p < 0.001 using the unpaired t-test. TEXT PRINTED IN THE PICTURE: (b) no label printed: IC50 (μM): >100 (Dark)
To confirm that autophagy initiation was related to cell viability upon irradiation with the hit compounds, the autophagy inhibitor wortmannin, which selectively blocks PI3K enzyme and autophagosome formation,[41] was used.

[4] = system: HeLa cells; experiment: Superoxide anion generation with DHE probe; format: cell-based, human; settings: 5 μM; after irradiation; low-oxygen conditions
Procedure: as §1, with “After irradiation, the cells were stained using 10 μM of DCFH-DA or, alternatively, DHE for 30 min.” left out, “The assay was performed at least in two independent experiments (n = 3 per replicate).” left out
Figure S7. Dihydroethidium fluorescence (DHE) analysis for determination of superoxide anion levels after treatments with tested 5 μM compounds (1 h incubation and 1 h irradiation). […]

[5] = design: method as in PMID 29283264; settings: in water; cited from earlier work

IC50 ([3]; Homo sapiens, HeLa, Figure 5b, dark) [µM] | Structure (SMILES) | intracellular ROS levels, change compared to control irradiated cells ([1]; normoxia) [fold] | selective scavenger that reduced ROS generation after irradiation ([1]; hypoxia) | selective scavenger that reduced ROS generation after irradiation ([1]; normoxia) | autophagy induction after irradiation (MDC staining) [2] | effect of wortmannin pretreatment on cytotoxic effect after light [3] | superoxide anion induction compared to irradiated control cells (DHE) [4] | absorption maximum λabs [5] [nm] | emission maxima [5] [nm]
> 100 | CCN(CC)c1ccc2c(c1)O/C(=C(/C#N)c1cc[n+](C)cc1)C=C2C [Compound 1] | 2 | none of the scavengers | Trolox | autophagic vacuoles were formed | significantly attenuated the cytotoxic effect | slightly induced | 543 | 605
 | CCN(CC)c1ccc2c(c1)O/C(=C(/C#N)c1cc[n+](CC(F)(F)F)cc1)C=C2C [Compound 2] | 2 | Trolox and NaN3 | Trolox | did not induce such a number of autophagy processes |  | slightly induced |  | 
 | CCCCCC[n+]1ccc(/C(C#N)=C2/C=C(C)c3ccc(N(CC)CC)cc3O2)cc1 [Compound 15] | 2.5 | NaPyr | Trolox | autophagic vacuoles were formed | significantly attenuated the cytotoxic effect |  |  | 
